Results on 29 molecules are retold here after patent US20250382305A1 (PTC THERAPEUTICS, INC., priority 2022, published 2025).

Usually IC50 stands for the midpoint of a concentration-inhibition curve.

Test [1] concerns ATXN3 pre-mRNA. As to the kind of experiment: RT-qPCR Assay to Quantify Exon 4 Skipping in ATXN3 pre-mRNA in Cells. The settings on record: percent exon 4 skipping in ATXN3 pre-mRNA, RT-qPCR of cell lysates; average IC50. The format is cell-based. Summed up:
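IC50 derives from a dose-response fit of percent exon 4 skipping, quantified by RT-qPCR on crude lysates. Compounds tested as 7-point 3.16-fold dilutions in duplicate; cells (10,000/well) were exposed for 24 h at 37 °C before lysis.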
Background: Real-time PCR tracks product formation cycle by cycle.

Test [2] deals with Total ATXN3 (tATXN3) protein. As to the kind of experiment: Endogenous Total ATXN3 (tATXN3) Protein Assay (MSD immunoassay of cell lysates). The format is cell-based. The settings on record: average IC50, total ATXN3 protein in cell lysate after 48 h with compound (Table 1). Summed up: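 By electrochemiluminescent MSD sandwich immunoassay (mouse monoclonal capture, rabbit monoclonal and SULFO-TAG anti-rabbit detection), endogenous ATXN3 was quantified in lysates of cells treated 48 h at 37° C at 10,000 cells/well. Treatment used a 7-point 3.16-fold duplicate dilution series, with average IC50 grouped into star categories.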

`Cc1c([C@@H]2CCC[C@H]2N)sc2c(NCc3ccco3)cc(Cl)nc12` [Compound 145, 2-((1R,2R)-2-aminocyclopentyl)-5-chloro-N-(furan-2-ylmethyl)-3-methylthieno[3,2-b]pyridin-7-amine]: the values for the IC50 in test [1] and in test [2] were 30 to 300 nM and > 1000 nM, respectively.
Taken in the same sequence, the figures for `N[C@@H]1CCC[C@H]1c1sc2c(NCc3cccs3)cc(Cl)nc2c1I` [Compound 154, 2-((1R,2R)-2-aminocyclopentyl)-5-chloro-3-iodo-N-(thiophen-2-ylmethyl)thieno[3,2-b]pyridin-7-amine] were > 1000 nM and > 1000 nM.
As to `N[C@@H]1CCC[C@H]1c1sc2c(NCc3ccco3)cc(Cl)nc2c1Br` [Compound 155, 2-((1R,2R)-2-aminocyclopentyl)-3-bromo-5-chloro-N-(furan-2-ylmethyl)thieno[3,2-b]pyridin-7-amine], the IC50 is 300 to 1000 nM in test [1] and > 1000 nM in test [2].
Taken in the same sequence, the figures for `N[C@@H]1CCCO[C@H]1c1sc2c(NCc3ccccc3)cc(Cl)nc2c1Cl` [Compound 156, 2-((2R,3R)-3-aminotetrahydro-2H-pyran-2-yl)-N-benzyl-3,5-dichlorothieno[3,2-b]pyridin-7-amine] were > 1000 nM and > 1000 nM.
As to `N[C@@H]1CCCCC[C@H]1c1sc2c(NCc3cccs3)cc(Cl)nc2c1I` [Compound 157, 2-((1R,2R)-2-aminocycloheptyl)-5-chloro-3-iodo-N-(thiophen-2-ylmethyl)thieno[3,2-b]pyridin-7-amine], the IC50 in test [1] and in test [2] was > 1000 nM each time.
Turning to `CCc1c([C@@H]2CCCCCC[C@H]2N)sc2c(NCc3cccs3)cc(Cl)nc12` [Compound 158, 2-((1R,2R)-2-aminocyclooctyl)-5-chloro-3-ethyl-N-(thiophen-2-ylmethyl)thieno[3,2-b]pyridin-7-amine], the IC50 in test [1] and in test [2] was > 1000 nM in each case.
On to `N[C@H]1CCC[C@@H]1c1sc2c(NCc3ccccc3)cc(Cl)nc2c1Cl` [Compound 159, 2-((1S,2S)-2-aminocyclopentyl)-N-benzyl-3,5-dichlorothieno[3,2-b]pyridin-7-amine], for which the IC50 in test [1] and in test [2] was > 1000 nM in each case.
Turning to `Cc1c([C@@H]2CCC[C@H]2N)sc2c(NCc3ccccc3)cc(Cl)nc12` [Compound 160, 2-((1R,2R)-2-aminocyclopentyl)-N-benzyl-5-chloro-3-methylthieno[3,2-b]pyridin-7-amine], the IC50 in test [1] and in test [2] was > 1000 nM throughout.
`N[C@@H]1CCC[C@H]1c1sc2c(NCc3ccccc3)cc(Cl)nc2c1Br` [Compound 161, 2-((1R,2R)-2-aminocyclopentyl)-N-benzyl-3-bromo-5-chlorothieno[3,2-b]pyridin-7-amine]: the IC50 in test [1] and in test [2] was > 1000 nM in each case.
As for `N[C@H]1CCC[C@@H]1c1sc2c(NCc3cccs3)cc(Cl)nc2c1I` [Compound 162, 2-((1S,2S)-2-aminocyclopentyl)-5-chloro-3-iodo-N-(thiophen-2-ylmethyl)thieno[3,2-b]pyridin-7-amine], the IC50 in test [1] and in test [2] was ≤ 30 nM throughout.
For `N[C@H]1CCCCC[C@@H]1c1sc2c(NCc3cccs3)cc(Cl)nc2c1I` [Compound 163, 2-((1S,2S)-2-aminocycloheptyl)-5-chloro-3-iodo-N-(thiophen-2-ylmethyl)thieno[3,2-b]pyridin-7-amine], the IC50 was ≤ 30 nM in test [1] and 30 to 300 nM in test [2].
Taken in the same sequence, the figures for `CCc1c([C@H]2CCCCCC[C@@H]2N)sc2c(NCc3cccs3)cc(Cl)nc12` [Compound 164, 2-((1S,2S)-2-aminocyclooctyl)-5-chloro-3-ethyl-N-(thiophen-2-ylmethyl)thieno[3,2-b]pyridin-7-amine] were 300 to 1000 nM and > 1000 nM.
Turning to `N[C@H]1CCC[C@@H]1c1sc2c(NCc3ccco3)cc(Cl)nc2c1Br` [Compound 165, 2-((1S,2S)-2-aminocyclopentyl)-3-bromo-5-chloro-N-(furan-2-ylmethyl)thieno[3,2-b]pyridin-7-amine], the IC50 in test [1] and in test [2] was ≤ 30 nM in each case.
For the molecule `N[C@H]1CCC[C@@H]1c1sc2c(NCc3ccccc3)cc(Cl)nc2c1Br` [Compound 166, 2-((1S,2S)-2-aminocyclopentyl)-N-benzyl-3-bromo-5-chlorothieno[3,2-b]pyridin-7-amine], the 50% inhibitory concentration (IC50) in test [1] and in test [2] was 30 to 300 nM in each case.
Consider `N[C@@H]1CCC[C@H]1c1sc2c(NCc3ccccc3)cc(Cl)nc2c1Cl` [Compound 167, 2-((1R,2R)-2-aminocyclopentyl)-N-benzyl-3,5-dichlorothieno[3,2-b]pyridin-7-amine], for which the concentration for half-maximal inhibition (IC50) lay in the range of 30 to 300 nM in test [1] and 300 to 1000 nM in test [2].
Taken in the same sequence, the figures for `N[C@H]1CC=CC[C@@H]1c1sc2c(NCc3ccco3)nc(Cl)nc2c1Br` [Compound 168, 6-((1S,6S)-6-aminocyclohex-3-en-1-yl)-7-bromo-2-chloro-N-(furan-2-ylmethyl)thieno[3,2-d]pyrimidin-4-amine] were ≤ 30 nM and ≤ 30 nM.
Taken in the same sequence, the figures for `N[C@H]1CC=CC[C@@H]1c1sc2c(NCc3ccco3)cc(Cl)nc2c1Cl` [Compound 169, 2-((1S,6S)-6-aminocyclohex-3-en-1-yl)-3,5-dichloro-N-(furan-2-ylmethyl)thieno[3,2-b]pyridin-7-amine] were ≤ 30 nM and ≤ 30 nM.
Taken in the same sequence, the figures for `N[C@H]1CC=CC[C@@H]1c1sc2c(NCc3ccco3)nc(Cl)nc2c1Cl` [Compound 170, 6-((1S,6S)-6-aminocyclohex-3-en-1-yl)-2,7-dichloro-N-(furan-2-ylmethyl)thieno[3,2-d]pyrimidin-4-amine] were < 30 nM and ≤ 30 nM.
As to `N[C@H]1CC=CC[C@@H]1c1sc2c(NCc3ccco3)nc(Cl)nc2c1I` [Compound 172, 6-((1S,6S)-6-aminocyclohex-3-en-1-yl)-2-chloro-N-(furan-2-ylmethyl)-7-iodothieno[3,2-d]pyrimidin-4-amine], the IC50 in test [1] and in test [2] was ≤ 30 nM each time.
With `N[C@H]1CCCC[C@@H]1c1sc2c(NCc3ccco3)cc(Cl)nc2c1Cl` [Compound 173, 2-((1S,2S)-2-aminocyclohexyl)-3,5-dichloro-N-(furan-2-ylmethyl)thieno[3,2-b]pyridin-7-amine], the IC50 in test [1] and in test [2] was ≤ 30 nM each time.
Take `N[C@H]1CCOC[C@@H]1c1sc2c(NCc3ccco3)cc(Cl)nc2c1Cl` [Compound 174, 2-((3R,4S)-4-aminotetrahydro-2H-pyran-3-yl)-3,5-dichloro-N-(furan-2-ylmethyl)thieno[3,2-b]pyridin-7-amine]: the IC50 in test [1] and in test [2] was ≤ 30 nM each time.
For `N[C@H]1CC=CC[C@@H]1c1sc2c(NCc3cccs3)cc(Cl)nc2c1I` [Compound 176, 2-((1S,6S)-6-aminocyclohex-3-en-1-yl)-5-chloro-3-iodo-N-(thiophen-2-ylmethyl)thieno[3,2-b]pyridin-7-amine], the IC50 in test [1] and in test [2] was ≤ 30 nM each time.
Take `N[C@H]1CC=CC[C@@H]1c1sc2c(NCc3nccs3)cc(Cl)nc2c1Cl` [Compound 178, 2-((1S,6S)-6-aminocyclohex-3-en-1-yl)-3,5-dichloro-N-(thiazol-2-ylmethyl)thieno[3,2-b]pyridin-7-amine]: the IC50 in test [1] and in test [2] was ≤ 30 nM each time.
Regarding `N[C@H]1CCOC[C@@H]1c1sc2c(NCc3cccs3)cc(Cl)nc2c1Cl` [Compound 179, 2-((3R,4S)-4-aminotetrahydro-2H-pyran-3-yl)-3,5-dichloro-N-(thiophen-2-ylmethyl)thieno[3,2-b]pyridin-7-amine], the IC50 in test [1] and in test [2] was ≤ 30 nM in each case.
Consider `N[C@H]1CC=CC[C@@H]1c1sc2c(NCc3cccs3)nc(Cl)nc2c1I` [Compound 182, 6-((1S,6S)-6-aminocyclohex-3-en-1-yl)-2-chloro-7-iodo-N-(thiophen-2-ylmethyl)thieno[3,2-d]pyrimidin-4-amine], for which the IC50 in test [1] and in test [2] was ≤ 30 nM each time.
For `Cc1c([C@H]2CC=CC[C@@H]2N)sc2c(NCc3ccco3)cc(Cl)nc12` [Compound 184, 2-((1S,6S)-6-aminocyclohex-3-en-1-yl)-5-chloro-N-(furan-2-ylmethyl)-3-methylthieno[3,2-b]pyridin-7-amine], the IC50 in test [1] and in test [2] was ≤ 30 nM in each case.
Regarding `N[C@H]1CC=CC[C@@H]1c1sc2c(NCc3cccs3)cc(Cl)nc2c1Br` [Compound 186, 2-((1S,6S)-6-aminocyclohex-3-en-1-yl)-3-bromo-5-chloro-N-(thiophen-2-ylmethyl)thieno[3,2-b]pyridin-7-amine], the IC50 in test [1] and in test [2] was ≤ 30 nM in each case.
For the molecule `[2H]C1=C([2H])C([2H])([2H])[C@H](c2sc3c(NCc4ccco4)nc(Cl)nc3c2C)[C@@H](N)C1([2H])[2H]` [Compound 187, 6-((1S,6S)-6-aminocyclohex-3-en-1-yl-2,2,3,4,5,5-d6)-2-chloro-N-(furan-2-ylmethyl)-7-methylthieno[3,2-d]pyrimidin-4-amine], the IC50 in test [1] and in test [2] was ≤ 30 nM each time.
As to `N[C@H]1CC=CC[C@@H]1c1sc2c(NCc3ccco3)cc(Cl)nc2c1I` [Compound 188, 2-((1S,6S)-6-aminocyclohex-3-en-1-yl)-5-chloro-N-(furan-2-ylmethyl)-3-iodothieno[3,2-b]pyridin-7-amine], the concentration for half-maximal inhibition (IC50) in test [1] and in test [2] was ≤ 30 nM throughout.
